According to a melting point compilation (Tetko et al.; mined from patent text by program, amines drawn as free bases though some values may be those of a salt):

melting point [°C]	Structure (SMILES)
142 to 143	COC(=O)C=Cc1ccc(OCc2nc(-c3ccccc3)c(C)s2)cc1
250 to 255	O=C1NCn2c3ccccc3c(=O)c3cccc1c32
154	C/C=C/c1ccc2c(NCc3ccc(NC(=O)C4CCN(Cc5ccccc5)CC4)cc3)nc(N(C)C)nc2c1
164	NC(=O)n1c(S(=O)Cc2ccccn2)nc2ccccc21 (stereo not given)
102	O=C(O)CC1=CC2(Cc3ccc(Br)cc3)C(=O)N(c3cc(Cl)cc(Cl)c3)C(=O)N2C1 (stereo not given)
130	COP(=O)(Cc1ccc(-c2nc3ccccc3s2)cc1)OC
192 to 193	CCN(CC)c1ccc2nc3c4ccccc4c(=Nc4ncc(Cl)cc4Cl)cc-3oc2c1
190 to 194	CN(C)c1ccc(C2(c3ccc(N(C)C)cc3N(C)C)OC(=O)c3ccccc32)cc1 (stereo not given)
211 to 212	Cc1nc(-c2ccc(Br)cc2)n(-c2ccc(S(C)(=O)=O)cn2)n1
166 to 169	N[C@H]1CC[C@H](CNc2ncc3ncnc(Nc4ccc(F)c(Cl)c4)c3n2)CC1
147 to 149	c1ccc(-c2cnn3cc(-c4ccc(CCCN5CCOCC5)cc4)cnc23)cc1
294 to 295	CC(C)c1[nH]n(-c2c(Cl)cc(Cl)cc2Cl)c2nc(Cc3ccc(C(=O)O)cc3)nc(=O)c1-2
206 to 208	COC(=O)c1cc(NC(=O)Nc2ccccc2)ccn1
174 to 175	COc1ccc2nc(-c3cccc4ccccc34)[nH]c(=O)c2c1
207 to 209	O=C(O)C1=C(c2cc(-c3ccccc3)[nH]n2)CCCC1
114 to 115	O=Cc1cnc(-c2ccc(OC(F)(F)F)cc2)nc1
258 to 260	Cc1cc(C)c2cc(-c3ccccc3)c(=O)[nH]c2n1
152	COc1cc(-c2nc3ccc(OCCN(C)C)cc3n2Cc2ccccc2Br)cc(OC)c1OC
199 to 200	NC(=O)c1sc2ncnc(-c3cccc(NC(=O)Nc4cccnc4)c3)c2c1N

melting point [°C]	Structure (SMILES)
228 to 230	Nc1ccc2c(c1)Cc1c(-c3ccccc3)n[nH]c1-2
159 to 160	CCOP(=O)(/C=C/c1cn(-c2ccccc2)nc1OCc1ccc(OCc2nc(N3CCC(C(=O)O)CC3)sc2C)c(OC)c1)OCC
99 to 100	CS(=O)(=O)c1cccc(C(Cc2ccc(F)cc2)C(=O)Nc2nc3ccccc3o2)c1 (stereo not given)
202 to 203	O=c1ccn(-c2ccncc2)nc1-c1ccnn1-c1ccccc1
209 to 210	CC(=O)Nc1c(C(=O)c2cc(-c3ccccc3)no2)[nH]c2cc(Cl)ccc12
96.8 to 97.6	CN1c2ccccc2-n2cc(Cc3cccnc3)c(=O)c3cccc1c32
131 to 133	CC(C)n1nc(-c2sc(NC(=O)c3ccc(CN(C)CCN(C)C)cc3)nc2-c2ccccc2)ccc1=O
127 to 129	COc1ccc2c(-c3c(-c4ccccn4)nn4c3CCCCC4)ccnc2c1
117 to 118	CO/C=C(/C(=O)OC)c1ccccc1Oc1cccc(O)c1
141 to 142	O=c1ccc(-c2c(-c3ccccc3)nn3ccccc23)nn1CC1CCCCN1 (stereo not given)
300	CCOC(=O)c1cn(C)c2cnc3cc(N4CCN(c5ccc(F)cc5)CC4)c(F)cc3c2c1=O
186 to 188	O=C(c1cc2ccc3[nH]ccc3c2[nH]1)N1CCC(Cc2ccccc2)CC1
207 to 209	COc1cccc(Cc2ccc3nc(N)nc(N)c3c2)c1
133 to 136	N#Cc1cccnc1N1CCN(CNC(=O)c2ccccc2)CC1
192	CS(=O)(=O)c1ccc(-c2ccc(Cl)nc2-c2ccc(F)cc2)cc1
237 to 241	COc1ccc(C2Sc3cc(Cl)ccc3NC(=O)C2O)cc1 (stereo not given)
109 to 111	CC#Cc1ccc(NC(=O)c2cccnc2NCc2ccc(OC)nc2)cc1C(F)(F)F
183 to 184	O=C1C(=O)c2ccccc2C2=C1SCC1(CCN(CC(O)COc3ccc4cc(Br)ccc4c3)CC1)O2 (stereo not given)
180 to 181	COc1cc(OC)cc(C(=O)N2CCc3cc(OCc4ccccc4)c(OC)cc3C2=O)c1

melting point [°C]	Structure (SMILES)
172 to 175	CC(C)=NNc1cc2c(nn1)CCN(C(=O)CC(c1ccccc1)c1ccccc1)C2
88 to 95	COc1cc(F)ccc1-c1ccc(S(=O)(=O)N2c3ccccc3CC2C(=O)NCCOc2ccc(C(=O)O)c(F)c2)cc1 (stereo not given)
155 to 157	COc1cccc(-c2nc3ccc(OC)cc3s2)c1
147 to 150	Nc1cc(C(c2cc(F)ccc2F)S(=O)(=O)c2ccc(Cl)cc2)c(Cl)cn1 (stereo not given)
177 to 179	Nc1ccc(CC(=O)N2CCC(c3[nH]nc4c3C(=O)c3c(NC(=O)NN5CCOCC5)cccc3-4)CC2)cc1
112 to 115	CCCCOc1cc(OC)ccc1C(=O)c1cccc(C(=O)O)c1
255 to 257	CN1CCN(c2ncnc3oc(C4=CC=CN(N5CCOCC5)C4)c(-c4ccccc4)c23)CC1
233 to 234	N#CCCNC(=O)Cc1c(C(=O)c2ccccc2)[nH]c2cc(Cl)ccc12
127 to 128	O=C1N(c2ccccc2)c2ccccc2C1(Cc1ccccc1)Cc1ccncc1 (stereo not given)
172 to 173	NNc1nc(-c2ccccc2)c2cc(Cl)ccc2n1
212	COc1ccc(C(=O)Nc2ccc3ccc(CO)nc3n2)cc1
94 to 96	O=C(O)CC/C=C\CC[C@@H]1[C@@H](OCc2ccc(-c3ccccc3)cc2)CO[C@@H]1c1cccnc1
119 to 121	Cc1nc(C)c(C)c(NCCNCC(O)COc2ccccc2)n1 (stereo not given)
168 to 169	NC(=O)Cn1nccc1-c1ccc(Oc2ccc(F)cc2)cc1
205 to 208	CCOC(=O)NNC(=O)Nc1ccc(C(F)(F)F)cc1
115 to 116	CCCCc1ncc(CO)n1Cc1ccc(OCc2ccccc2C(=O)O)cc1
189 to 190	CCn1ncc2nc(C(N)=O)c(-c3ccccc3)nc21
238 to 240	COc1ccc2c(C(=O)O)nn(Cc3ccc(Cl)c(Cl)c3)c(=O)c2c1

More lines, now with the values behind:

Structure (SMILES)	melting point [°C]
CC(C)N(C(=O)c1nn(-c2ccc(F)cc2F)c2c1C1CCC2C1)C(C)C (stereo not given)	107 to 109
NC(=O)N(O)[C@H]1CC[C@H](c2cccc(F)c2)C1 (relative stereo)	113 to 114
CCCCCCCCOC1CCC(=O)N1 (stereo not given)	36 to 38
C#CCN(Cc1cc2c(=O)n(C)c(CN3CCCCC3)nc2cc1Cl)c1ccc(C(=O)OC(C)(C)C)cc1	162 to 163
COC(=O)CCC(C)C(=O)N[C@@H](C)C(=O)OCc1ccccc1 (stereo not given in full)	97 to 99
CCC(=O)C(CC)=NNc1ccccc1[N+](=O)[O-]	96 to 97
CCCOc1ccc([N+](=O)[O-])nc1C	54 to 56
COc1ccc(C#CCCN2CCOC2=O)cc1OC	78 to 79
NNc1ccc(C2CCCCC2)cc1	115 to 116
CN(C)C1(c2ccccc2)CCC(CNC(=O)N2CCCC(c3c[nH]c4ccc(F)cc34)C2)CC1 (stereo not given)	98 to 101
CCOC(=O)C(=O)CC(=O)CC(=O)c1ccc(Cl)cc1	93 to 94
CCCCn1c(=O)c2c(cnn2S(=O)(=O)CCC)n(CCCC)c1=O	44 to 48
Nc1nc2c(s1)CCN(CC=Cc1ccccc1)CC2	120 to 124
CCOC(=O)C1=C(C)NC(CO)=C(C(=O)OCC)C1c1cccc([N+](=O)[O-])c1 (stereo not given)	141 to 142
CC1(C)Oc2ccc(C#N)cc2[C@@H](n2c(=O)[nH]c3ccccc32)[C@@H]1O (relative stereo)	255 to 257
CCOC(=O)N1Cc2ccccc2C(Oc2ccc(Cl)cc2)C1 (stereo not given)	78.5 to 79.5
CCCCCCCCCCCC(=O)NCc1ccsc1	83 to 84
O=C(CCC(=O)N1CCC(c2ccc(Cl)cc2)CC1)c1ccc2c(c1)CCN(CC(=O)c1ccccc1)CC2	108 to 109
COc1ccc(C2(CCCCl)S(=O)CCCS2=O)cc1OC (stereo not given)	163 to 164
O=C(CCCCCNC(=O)OCc1ccccc1)NCCCCCO	92.5 to 94
CCC1(CC(=O)OC)OCC(O)c2c1[nH]c1ccccc21 (stereo not given)	86 to 90
CCc1ccc2ncc(-c3nnn[nH]3)c(=O)n2c1	289 to 290

Structure (SMILES)	melting point [°C]
CCCCC(=O)c1cn(C(c2ccccc2)(c2ccccc2)c2ccccc2)cn1	115 to 118
COc1cc2c(c(C(C)(C)C)c1)OC(=O)C2	117 to 118
c1ccc(-c2ccc(-n3cccc3)cc2)cc1	190 to 192
CCC(O)(Cn1cncn1)C(c1ccc(Cl)cc1)n1cncn1 (stereo not given)	60 to 64
CN(CC(=O)O)C(=O)C=Cc1ccccc1	177 to 179
C=C(C)C(=O)OCCCOc1ccc(OC(=O)C(=C)C)cc1	58
CN(C)c1ccc(NC(=O)N(C[C@H]2CC[C@@H](CN(C(=O)Nc3ccc(N(C)C)cc3)C3CCCCCCC3)CC2)C2CCCCCCC2)cc1	197 to 200
Cc1cc(C)c2c(c1)CC2=NNC(N)=S	230 to 232
COC(=O)[C@@H](N)CCc1nnnn1CC(=O)N[C@H](C)C(=O)OC	87 to 89
CNC(=S)NCCSCc1cnccn1	99.5 to 100
CCSC1(CCO)C(=O)Nc2ccc(Cl)cc21 (stereo not given)	132 to 135
CC1(C)CC(=O)c2cc(C#N)c(N3CCCCC3)nc2C1	99 to 100
O=C(NCCCOc1cc(CN2CCCCC2)ccn1)c1cn[nH]c1	117 to 119
Cc1ncoc1C(C)(O)c1ccccc1C(F)(F)F (stereo not given)	108 to 109
Oc1nc2cc(F)ccc2n2c(C(F)(F)F)nnc12	298 to 302
CCOC(=O)C(=NOC)C1=CSCCO1	64 to 66
CC(C)(C)OC1OC(=O)C2C1C2(C)C (stereo not given)	115
C=CC[C@H]1C(=O)N[C@H]2CCN(C(=O)OCc3ccccc3)[C@@H]21 (relative stereo)	160
CCCc1nc2cc(C)c(NC(=O)c3cc(C(F)(F)F)nn3-c3ncccc3Cl)c(C(=O)NC(C)C)c2cc1CC	213 to 220
CC1=C(C#N)S(=O)(=O)c2ccc(F)cc2N1	261 to 263
Cc1ccc(C(c2ccc(C)cc2)C2CN(Cc3ccc(O)cc3)CCC2=O)cc1 (stereo not given)	156 to 157
C#C[C@]1(C)CCc2c(C)c(OCc3ccccc3)c(C)c(C)c2O1	88 to 90
